Laboratory results as given in patent US20250230193A1, “CYCLIC COMPOUND HAVING SELECTIVE KRAS INHIBITORY EFFECT ON HRAS AND NRAS” (CHUGAI SEIYAKU KABUSHIKI KAISHA, priority 2022, published 2025).
Where a SMILES comes first, the peptide text is derived from it. Bridges are numbered along the chain shown (N, C = ends). [ ]: non-standard residue; d: D form. The star is where a group is joined. hPhe(3-Cl-4-CF3) = N[C@@H](CCc1ccc(C(F)(F)F)c(Cl)c1)C(=O)O; NPrPhe(4-CF3) = CCCN[C@@H](Cc1ccc(C(F)(F)F)cc1)C(=O)O; 3Oxa8azabicyclo(3.2.1)octane = C1CC2COCC1N2*; NMePhe(4-F) = CN[C@@H](Cc1ccc(F)cc1)C(=O)O; NMeGly(cPent) = CN[C@H](C(=O)O)C1CCCC1; Hyp = O=C(O)[C@@H]1C[C@@H](O)CN1; NMeD = CN[C@@H](CC(=O)O)C(=O)O; NMeL = CN[C@@H](CC(C)C)C(=O)O; Morpholide = C1CN(*)CCO1; NMeA = CN[C@@H](C)C(=O)O; Ac5c = NC1(C(=O)O)CCCC1; Aze = O=C(O)[C@@H]1CCN1; Ac4c = NC1(C(=O)O)CCC1; Sar = CNCC(=O)O

Legend:
[1] = molecular target: GDP-bound NRAS wild-type protein (Homo sapiens, UniProt P01111); assay: Binding to NRAS by surface plasmon resonance (SPR), Single Cycle Kinetics
Chain of GDP-bound NRAS wild-type protein (P01111 whole entry): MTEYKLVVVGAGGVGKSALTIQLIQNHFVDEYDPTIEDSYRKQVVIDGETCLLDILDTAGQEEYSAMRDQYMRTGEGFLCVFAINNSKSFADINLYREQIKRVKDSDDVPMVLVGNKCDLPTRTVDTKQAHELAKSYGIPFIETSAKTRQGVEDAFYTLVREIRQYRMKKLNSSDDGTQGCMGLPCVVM

[2] = molecular target: GDP-bound HRAS wild-type protein (Homo sapiens, UniProt P01112); assay: Binding to HRAS by surface plasmon resonance (SPR), Single Cycle Kinetics
Chain of GDP-bound HRAS wild-type protein (P01112 whole entry): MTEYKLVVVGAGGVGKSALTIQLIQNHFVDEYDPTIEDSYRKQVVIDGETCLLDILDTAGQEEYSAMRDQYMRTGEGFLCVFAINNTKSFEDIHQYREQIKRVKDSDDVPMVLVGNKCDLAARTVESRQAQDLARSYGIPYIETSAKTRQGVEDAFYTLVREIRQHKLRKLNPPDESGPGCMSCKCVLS

[3] = SPR, GDP-bound wild-type proteins
[4] = KD ratio, GDP-bound NRAS wild-type vs GDP-bound KRAS wild-type, SPR
[5] = KD ratio, GDP-bound HRAS wild-type vs GDP-bound KRAS wild-type, SPR

SMILES: CCCO[C@@H]1C[C@H]2C(=O)NC3(CC(C)(C)C3)C(=O)N(C)[C@@H](C3CCCC3)C(=O)N(C)[C@H](C(=O)N(C)C)CC(=O)N(C)[C@H]3CCCCc4ccc(cc4)C[C@@H](C(=O)N(C)CC(=O)N[C@@H](CCc4ccc(C(F)(F)F)c(OC)c4)C(=O)N2C1)N1CC/C=C\C[C@@H](C1=O)N(C)C(=O)CN(C)C(=O)[C@H]([C@@H](C)CC)NC3=O [PP3077]
- NRAS/KRAS (ratio of KD value with respect to GDP-bound NRAS wild-type protein to KD value with respect to KRAS) [1, 3]: A (a compound having 10 or more and less than 20 is denoted as A)
- HRAS/KRAS (ratio of KD value with respect to GDP-bound HRAS wild-type protein to KD value with respect to KRAS) [2, 3]: B (a compound having 3 or more and less than 10 is denoted as B)

SMILES: CCCN1C(=O)CN(C)C(=O)CN(C)C(=O)[C@H]([C@@H](C)CC)NC(=O)[C@H](CC(C)C)N(C)C(=O)C[C@@H](C(=O)N(C)C)N(C)C(=O)[C@H](C2CCCC2)N(C)C(=O)C2(CCC2)NC(=O)[C@@H]2C[C@@H](OCC)CN2C(=O)[C@H](CCc2ccc(C(F)(F)F)c(Cl)c2)NC(=O)CN(C)C(=O)[C@@H]1Cc1ccc(C(F)(F)F)cc1 [PP0416] ([NMeL]I[Sar][Sar][NPrPhe(4-CF3)][Sar][hPhe(3-Cl-4-CF3)][Hyp](Et)[Ac4c][NMeGly(cPent)][NMeD]-NMe2; lactam N-11)
- NRAS/KRAS (ratio of KD value with respect to GDP-bound NRAS wild-type protein to KD value with respect to KRAS) ([1]; SPR): B (a compound having 3 or more and less than 10 is denoted as B)
- HRAS/KRAS (ratio of KD value with respect to GDP-bound HRAS wild-type protein to KD value with respect to KRAS) ([2]; SPR): C (A compound having a KD ratio of 0.1 or more and less than 3 is denoted as C)

SMILES: CCO[C@@H]1C[C@H]2C(=O)NC3(CC(C)(C)C3)C(=O)N(C)[C@@H](C3CCCC3)C(=O)N(C)[C@H](C(=O)N(C)CC)CC(=O)N(C)[C@H]3CCCCCCc4ccc(cc4)C[C@@H](C(=O)N(C)CC(=O)N[C@@H](CCc4ccc(C(F)(F)F)c(OC)c4)C(=O)N2C1)N1CC/C=C\C[C@@H](C1=O)N(C)C(=O)CN(C)C(=O)[C@H]([C@@H](C)CC)NC3=O [PP2260, (1S,7S,11R,13S,19S,22S,26S,29S,35S,37Z)-19-cyclopentyl-11-ethoxy-N-ethyl-7-[2-[3-methoxy-4-(trifluoromethyl)phenyl]ethyl]-N,3,3′,3′,18,21,25,31,34-nonamethyl-29-[(1S)-1-methylpropyl]-2,5,8,14,17,20,24,27,30,33,55-undecaoxo-spiro[3,6,9,15,18,21,25,28,31,34,41-undecazapentacyclo[24.15.11.2^43,46.1^35,41.0^9,13]pentapentaconta-37,43(54),44,46(53)-tetraene-16,1′-cyclobutane]-22-carboxamide]
- NRAS/KRAS (ratio of KD value with respect to NRAS to KD value with respect to KRAS) ([1]; SPR, GDP-bound NRAS wild-type vs GDP-bound KRAS wild-type): A (a compound having 10 or more and less than 20 is denoted as A)
- HRAS/KRAS (ratio of KD value with respect to HRAS to KD value with respect to KRAS) ([2]; SPR, GDP-bound HRAS wild-type vs GDP-bound KRAS wild-type): A (a compound having 10 or more and less than 20 is denoted as A)

SMILES: CCC[C@H]1C(=O)N[C@@H](CC(C)C)C(=O)N2C[C@@H](OC)C[C@H]2C(=O)N(C)[C@H]2C/C=C\CCN(C2=O)[C@@H](Cc2ccc(C)cc2)C(=O)N(C)CC(=O)N[C@@H](CCc2ccc(C(F)(F)F)c(OC)c2)C(=O)N2C[C@H](OCC)C[C@H]2C(=O)NC2(CC(C)(C)C2)C(=O)N(C)[C@@H](C2CCCC2)C(=O)N(C)[C@H](C(=O)N(C)C)CC(=O)N1C [PP2554]
- NRAS/KRAS (ratio of KD value with respect to GDP-bound NRAS wild-type protein to KD value with respect to KRAS) ([1]; class symbols): A (a compound having 10 or more and less than 20 is denoted as A)
- HRAS/KRAS (ratio of KD value with respect to GDP-bound HRAS wild-type protein to KD value with respect to KRAS) ([2]; class symbols): B (a compound having 3 or more and less than 10 is denoted as B)

SMILES: CC[C@H](C)[C@@H]1NC(=O)[C@H](CC(C)C)N(C)C(=O)C[C@@H](C(=O)N2CCOCC2)N(C)C(=O)[C@H](C2CCCC2)N(C)C(=O)C2(CCCC2)NC(=O)[C@@H]2CCCN2C(=O)[C@H](CCc2ccc(C(F)(F)F)c(Cl)c2)NC(=O)CN(C)C(=O)[C@H](Cc2ccc(F)cc2)N(C)C(=O)CN(C)C(=O)CN(C)C1=O [PP0212] ([NMeL]I[Sar][Sar][NMePhe(4-F)][Sar][hPhe(3-Cl-4-CF3)]P[Ac5c][NMeGly(cPent)][NMeD]-Morpholide; lactam N-11)
- NRAS/KRAS (ratio of KD for GDP-bound NRAS wild-type to KD for KRAS) ([1]; SPR): C (A compound having a KD ratio of 0.1 or more and less than 3 is denoted as C)
- HRAS/KRAS (ratio of KD for GDP-bound HRAS wild-type to KD for KRAS) ([2]; SPR): C (A compound having a KD ratio of 0.1 or more and less than 3 is denoted as C)

SMILES: CCCN1C(=O)[C@@H]2CCN2C(=O)[C@H](C)N(C)C(=O)[C@H]([C@@H](C)CC)NC(=O)[C@H](CC(C)C)N(C)C(=O)C[C@@H](C(=O)N2C3CCC2COC3)N(C)C(=O)[C@H](C2CCCC2)N(C)C(=O)C2(CCCC2)NC(=O)[C@@H]2CCCN2C(=O)[C@H](CCc2ccc(C(F)(F)F)c(Cl)c2)NC(=O)CN(C)C(=O)[C@@H]1Cc1ccc(C(F)(F)F)cc1 [PP0182] ([NMeL]I[NMeA][Aze][NPrPhe(4-CF3)][Sar][hPhe(3-Cl-4-CF3)]P[Ac5c][NMeGly(cPent)][NMeD]-{3Oxa8azabicyclo(3.2.1)octane}; lactam N-11)
- NRAS/KRAS (ratio of KD for GDP-bound NRAS wild-type to KD for KRAS) ([1]; SPR): C (A compound having a KD ratio of 0.1 or more and less than 3 is denoted as C)
- HRAS/KRAS (ratio of KD for GDP-bound HRAS wild-type to KD for KRAS) ([2]; SPR): B (a compound having 3 or more and less than 10 is denoted as B)

SMILES: CCO[C@@H]1C[C@H]2C(=O)NC3(CCC3)C(=O)N(C)[C@@H](C3CCCC3)C(=O)N[C@H](C)CC(=O)N(C)[C@@H](CC)C(=O)N[C@@H]([C@@H](C)CC)C(=O)N(C)CC(=O)N(C)[C@H]3C/C=C\CCN(C3=O)[C@@H](Cc3ccc(C(F)(F)F)cc3)C(=O)N(C)CC(=O)N[C@@H](CCc3cc(F)c(C(F)(F)F)c(F)c3)C(=O)N2C1 [PP1098]
- NRAS/KRAS (ratio of KD value with respect to NRAS to KD value with respect to KRAS) [1, 4]: B (a compound having 3 or more and less than 10 is denoted as B)
- HRAS/KRAS (ratio of KD value with respect to HRAS to KD value with respect to KRAS) [2, 5]: B (a compound having 3 or more and less than 10 is denoted as B)

SMILES: CCO[C@@H]1C[C@H]2C(=O)NC3(CCC3)C(=O)N(C)[C@@H](C3CCCC3)C(=O)N(C)[C@H](C(=O)N(C)C)CC(=O)N(C)[C@@H](CC)C(=O)N[C@@H]([C@@H](C)CC)C(=O)N(C)CC(=O)N(C)[C@H]3CCCCCN(C3=O)[C@@H](Cc3ccc(C(F)(F)F)cc3)C(=O)N(C)CC(=O)N[C@@H](CCc3ccc4sccc4c3)C(=O)N2C1 [PP0892]
- NRAS/KRAS (ratio of KD value with respect to NRAS to KD value with respect to KRAS) [1, 4]: B (a compound having 3 or more and less than 10 is denoted as B)
- HRAS/KRAS (ratio of KD value with respect to HRAS to KD value with respect to KRAS) [2, 5]: B (a compound having 3 or more and less than 10 is denoted as B)

SMILES: CCC[C@H]1C(=O)N[C@@H]([C@@H](C)CC)C(=O)N(C)CC(=O)N(C)[C@H]2C/C=C\CCN(C2=O)[C@@H](Cc2ccc(C)cc2)C(=O)N(C)CC(=O)N[C@@H](CCc2ccc(C(F)(F)F)c(OC)c2)C(=O)N2C[C@H](OCC)C[C@H]2C(=O)NC2(CCC2)C(=O)N(C)[C@@H](C2CCCC2)C(=O)N(C)[C@H](C(=O)N(C)C)CC(=O)N1C [PP1871]
- NRAS/KRAS (ratio of KD value for NRAS to KD value for KRAS) [1, 4]: A (a compound having 10 or more and less than 20 is denoted as A)
- HRAS/KRAS (ratio of KD value for HRAS to KD value for KRAS) [2, 5]: A (a compound having 10 or more and less than 20 is denoted as A)

SMILES: CCO[C@@H]1C[C@H]2C(=O)NC3(CC(C)(C)C3)C(=O)N(C)[C@@H](CC(C)(C)C)C(=O)N(C)[C@H](C(=O)N(C)C)CC(=O)N(C)[C@@H](C(C)C)C(=O)N[C@@H]([C@@H](C)CC)C(=O)N(C)CC(=O)N(C)[C@H]3C/C=C\CCN(C3=O)[C@@H](Cc3ccc(C(F)(F)F)cc3)C(=O)N(C)CC(=O)N[C@@H](CCc3ccc(C(F)(F)F)c(OC)c3)C(=O)N2C1 [PP2773]
- NRAS/KRAS (ratio of KD value with respect to GDP-bound NRAS wild-type protein to KD value with respect to KRAS) ([1]; class symbols): B (a compound having 3 or more and less than 10 is denoted as B)
- HRAS/KRAS (ratio of KD value with respect to GDP-bound HRAS wild-type protein to KD value with respect to KRAS) ([2]; class symbols): B (a compound having 3 or more and less than 10 is denoted as B)

SMILES: C#CC[C@H]1C(=O)N[C@@H]([C@@H](C)CC)C(=O)N(C)CC(=O)N(C)[C@H]2C/C=C\CCN(C2=O)[C@@H](Cc2ccc(C)cc2)C(=O)N(C)CC(=O)N[C@@H](CCc2cc(F)c(C(F)(F)F)c(F)c2)C(=O)N2CC3(CC3)C[C@H]2C(=O)NC2(CC(C)(C)C2)C(=O)N(C)[C@@H](C2CCCC2)C(=O)N(C)[C@H](C(=O)N(C)C)CC(=O)N1C [PP2978]
- NRAS/KRAS (ratio of KD value with respect to GDP-bound NRAS wild-type protein to KD value with respect to KRAS) [1, 3]: A (a compound having 10 or more and less than 20 is denoted as A)
- HRAS/KRAS (ratio of KD value with respect to GDP-bound HRAS wild-type protein to KD value with respect to KRAS) [2, 3]: A (a compound having 10 or more and less than 20 is denoted as A)

SMILES: CCO[C@@H]1C[C@H]2C(=O)NC3(CCC3)C(=O)N(C)[C@@H](C3CCCC3)C(=O)N(C)[C@H](C(=O)N(C)C)CC(=O)N(C)[C@@H](C)C(=O)N[C@@H]([C@@H](C)CC)C(=O)N(C)CC(=O)N(C)[C@H]3CCCCCN(C3=O)[C@@H](Cc3ccc(F)cc3)C(=O)N(C)CC(=O)N[C@@H](CCc3cc(F)c(C(F)(F)F)c(F)c3)C(=O)N2C1 [PP1189]
- NRAS/KRAS (ratio of KD value with respect to NRAS to KD value with respect to KRAS) [1, 4]: B (a compound having 3 or more and less than 10 is denoted as B)
- HRAS/KRAS (ratio of KD value with respect to HRAS to KD value with respect to KRAS) [2, 5]: B (a compound having 3 or more and less than 10 is denoted as B)

SMILES: CC[C@H](C)[C@@H]1NC(=O)[C@H](CC(C)C)N(C)C(=O)C[C@@H](C(=O)N2CCOCC2)N(C)C(=O)[C@H](C2CCCC2)N(C)C(=O)C2(CCCC2)NC(=O)[C@@H]2CCCN2C(=O)[C@H](CCc2ccc(C(F)(F)F)c(Cl)c2)NC(=O)CN(C)C(=O)[C@H](Cc2ccc(C(F)(F)F)cc2)N2CC/C=C\C[C@@H](C2=O)N(C)C(=O)CN(C)C1=O [PP0463]
- NRAS/KRAS (ratio of KD value with respect to GDP-bound NRAS wild-type protein to KD value with respect to KRAS) ([1]; SPR): A (a compound having 10 or more and less than 20 is denoted as A)
- HRAS/KRAS (ratio of KD value with respect to GDP-bound HRAS wild-type protein to KD value with respect to KRAS) ([2]; SPR): A (a compound having 10 or more and less than 20 is denoted as A)
